Patent US8546608B2, “Proteasome inhibitors and methods of using the same” (Cephalon, Inc., priority 2003, dated 2013)

Key:
[1] = target: T1, 20S Human Erythrocyte Proteasome (HEP) (Homo sapiens, UniProt P20618+P28074); assay: Chymotrypsin-like activity of 20S Human Erythrocyte Proteasome (HEP), IC50 determination; assay type: biochemical; conditions: assay of Example C, inhibition of HEP
T1 construct: 20S Human Erythrocyte Proteasome (HEP), purchased from Immatics Biotechnologies Inc; purchased Immatics Biotechnologies Inc., Tübingen, Germany; host or cells: human erythrocytes (natural source)
Outline: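 20S proteasome at 0.2 μg/mL (about 0.6 nM catalytic sites) in 20 mM Tris with 0.04% SDS, preincubated 15 min at 37° C with inhibitor before Suc-LLVY-AMC (100 μM final). AMC fluorescence read in the linear range; triplicates, IC50 from concentration series.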

[2] = target: T2, proteasome in Molt-4 cells (human leukemia) (Homo sapiens, UniProt P20618+P28074); assay type: cell-based; conditions: assay of Example E, inhibition of MOLT4; read-out: MOLT4 (EC50)
T2 sequence (P28074 60-263): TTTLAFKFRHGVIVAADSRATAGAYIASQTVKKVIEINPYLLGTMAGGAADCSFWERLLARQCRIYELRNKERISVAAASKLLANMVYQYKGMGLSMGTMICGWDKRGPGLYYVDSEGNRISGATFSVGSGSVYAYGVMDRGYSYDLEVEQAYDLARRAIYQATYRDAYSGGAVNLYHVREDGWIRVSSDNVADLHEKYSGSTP
T2 sequence (P20618 29-241): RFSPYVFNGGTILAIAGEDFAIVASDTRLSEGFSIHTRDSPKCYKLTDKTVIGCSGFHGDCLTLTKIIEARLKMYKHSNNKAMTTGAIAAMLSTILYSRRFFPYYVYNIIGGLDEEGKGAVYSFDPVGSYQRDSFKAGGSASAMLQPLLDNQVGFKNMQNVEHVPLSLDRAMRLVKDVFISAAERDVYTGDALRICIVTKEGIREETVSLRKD
Outline: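 Intact Molt-4 cells (6×10^6 cells/mL) in HEPES-buffered saline were preincubated with inhibitor 15 min at 37 °C, then given cell-permeable MeOSuc-FLF-AFC at 25 μM final.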

## CC(C)C[C@H](NC(=O)[C@H](CCCNC(=N)N[N+](=O)[O-])NC(=O)CC1CC2CCC1C2)B(O)O (stereo partly drawn) [E.2.41, Boronic acid, [(1R)-1-[[(2S)-5-[[imino(nitroamino)methyl]amino]-2-[[2-(bicyclo[2.2.1]hept-2-yl)acetyl]amino]-1-oxopentyl]amino]-3-methylbutyl]]
[1]
  IC50: < 10 nM
[2]
  EC50: > 10000 nM

## CC(C)C[C@H](NC(=O)[C@H](CCCNC(=N)N[N+](=O)[O-])NC(=O)CCCOc1ccccc1)B(O)O [E.2.42, Boronic acid, [(1R)-1-[[(2S)-5-[[imino(nitroamino)methyl]amino]-2-[(4-phenoxybutanoyl)amino]-1-oxopentyl]amino]-3-methylbutyl]]
[1]
  IC50: < 10 nM
[2]
  EC50: > 10000 nM

## CCCCCCCCCCCCC(=O)N[C@@H](CCCNC(=N)N[N+](=O)[O-])C(=O)N[C@@H](CC(C)C)B(O)O [E.2.45, Boronic acid, [(1R)-1-[[(2S)-5-[[imino(nitroamino)methyl]amino]-2-[(tridecanoyl)amino]-1-oxopentyl]amino]-3-methylbutyl]]
[1]
  IC50: < 10 nM
[2]
  EC50: < 200 nM

## CC(C)C[C@H](NC(=O)[C@H](CCCNC(=N)N[N+](=O)[O-])NC(=O)CCCCCCCc1ccccc1)B(O)O [E.2.46, Boronic acid, [(1R)-1-[[(2S)-5-[[imino(nitroamino)methyl]amino]-2-[(8-phenyloctanoyl)amino]-1-oxopentyl]amino]-3-methylbutyl]]
[1]
  IC50: < 10 nM
[2]
  EC50: 200 to 2000 nM

## CC(C)C[C@H](NC(=O)[C@H](CCCNC(=N)N[N+](=O)[O-])NC(=O)CCC(=O)c1ccc(S(C)(=O)=O)cc1)B(O)O [E.2.47, Boronic acid, [(1R)-1-[[(2S)-5-[[imino(nitroamino)methyl]amino]-2-[[4-(4-methanesulfonylphenyl)-4-oxobutanoyl]amino]-1-oxopentyl]amino]-3-methylbutyl]]
[1]
  IC50: < 10 nM
[2]
  EC50: > 10000 nM

## CC(C)C[C@H](NC(=O)[C@H](CCCNC(=N)N[N+](=O)[O-])NC(=O)CCSc1ccc2ccccc2c1)B(O)O [E.2.48, Boronic acid, [(1R)-1-[[(2S)-5-[[imino(nitroamino)methyl]amino]-2-[[3-(naphthalen-2-ylsulfanyl)-propanoyl]amino]-1-oxopentyl]amino]-3-methylbutyl]]
[1]
  IC50: < 10 nM
[2]
  EC50: 200 to 2000 nM

## CC(C)C[C@H](NC(=O)[C@H](CCCNC(=N)N[N+](=O)[O-])NC(=O)CSCc1ccccc1)B(O)O [E.2.49, Boronic acid, [(1R)-1-[[(2S)-5-[[imino(nitroamino)methyl]amino]-2-[[2-[(phenylmethyl)sulfanyl]acetyl]amino]-1-oxopentyl]amino]-3-methylbutyl]]
[1]
  IC50: < 10 nM
[2]
  EC50: > 10000 nM

## CSCCC(=O)N[C@@H](CCCNC(=N)N[N+](=O)[O-])C(=O)N[C@@H](CC(C)C)B(O)O [E.2.50, Boronic acid, [(1R)-1-[[(2S)-5-[[imino(nitroamino)methyl]amino]-2-[(3-Methylsulfanylpropanoyl)amino]-1-oxopentyl]amino]-3-methylbutyl]]
[1]
  IC50: < 10 nM
[2]
  EC50: > 10000 nM

## CC(=O)N1CCC[C@H]1C(=O)N[C@@H](CCCNC(=N)N[N+](=O)[O-])C(=O)N[C@@H](CC(C)C)B(O)O [E.2.51, Boronic acid, [(1R)-1-[[(2S)-5-[[imino(nitroamino)methyl]amino]-2-[((2S)-1-acetylpyrrolidine-2-carbonyl)amino]-1-oxopentyl]amino]-3-methylbutyl]]
[1]
  IC50: < 100 nM
[2]
  EC50: > 10000 nM

## CC(C)C[C@H](NC(=O)[C@H](CCCNC(=N)N[N+](=O)[O-])NC(=O)/C=C/c1ccccc1Br)B(O)O [E.2.52, Boronic acid, [(1R)-1-[[(2S)-5-[[imino(nitroamino)methyl]amino]-2-[[trans-3-(2-bromophenyl)acryl]amino]-1-oxopentyl]amino]-3-methylbutyl]]
[1]
  IC50: < 10 nM
[2]
  EC50: 2000 to 10000 nM

## CC(C)C[C@H](NC(=O)[C@H](CCCNC(=N)N[N+](=O)[O-])NC(=O)Cn1cnnn1)B(O)O [E.2.53, Boronic acid, [(1R)-1-[[(2S)-5-[[imino(nitroamino)methyl]amino]-2-[[2-(tetrazol-1-yl)acetyl]amino]-1-oxopentyl]amino]-3-methylbutyl]]
[1]
  IC50: < 100 nM
[2]
  EC50: > 10000 nM

## CC(C)C[C@H](NC(=O)[C@H](CCCNC(=N)N[N+](=O)[O-])NC(=O)CSc1ncccn1)B(O)O [E.2.54, Boronic acid, [(1R)-1-[[(2S)-5-[[imino(nitroamino)methyl]amino]-2-[[2-(pyrimidin-2-ylsulfanyl)acetyl]amino]-1-oxopentyl]amino]-3-methylbutyl]]
[1]
  IC50: < 10 nM
[2]
  EC50: > 10000 nM

## CCc1ccc(OCC(=O)N[C@@H](CCCNC(=N)N[N+](=O)[O-])C(=O)N[C@@H](CC(C)C)B(O)O)cc1 [E.2.55, Boronic acid, [(1R)-1-[[(2S)-5-[[imino(nitroamino)methyl]amino]-2-[[2-(4-ethylphenoxy)acetyl]amino]-1-oxopentyl]amino]-3-methylbutyl]]
[1]
  IC50: < 10 nM
[2]
  EC50: 2000 to 10000 nM

## Cc1ccc(C)c(CC(=O)N[C@@H](CCCNC(=N)N[N+](=O)[O-])C(=O)N[C@@H](CC(C)C)B(O)O)c1 [E.2.56, Boronic acid, [(1R)-1-[[(2S)-5-[[imino(nitroamino)methyl]amino]-2-[[2-(2,5-dimethylphenyl)acetyl]amino]-1-oxopentyl]amino]-3-methylbutyl]]
[1]
  IC50: < 10 nM
[2]
  EC50: 2000 to 10000 nM

## CC(C)C[C@H](NC(=O)[C@H](CCCNC(=N)N[N+](=O)[O-])NC(=O)CCCCCCC(=O)c1ccccc1)B(O)O [E.2.57, Boronic acid, [(1R)-1-[[(2S)-5-[[imino(nitroamino)methyl]amino]-2-[(8-oxo-8-phenyloctanoyl)amino]-1-oxopentyl]amino]-3-methylbutyl]]
[1]
  IC50: < 10 nM
[2]
  EC50: 2000 to 10000 nM

## CC(C)C[C@H](NC(=O)[C@H](CCCNC(=N)N[N+](=O)[O-])NC(=O)CSc1ccc2ccccc2c1)B(O)O [E.2.58, Boronic acid, [(1R)-1-[[(2S)-5-[[imino(nitroamino)methyl]amino]-2-[[2-(2-naphthylsulfanyl)acetyl]amino]-1-oxopentyl]amino]-3-methylbutyl]]
[1]
  IC50: < 10 nM
[2]
  EC50: 2000 to 10000 nM

## Cc1ccc(/C=C/C(=O)N[C@@H](CCCNC(=N)N[N+](=O)[O-])C(=O)N[C@@H](CC(C)C)B(O)O)cc1 [E.2.60, Boronic acid, [(1R)-1-[[(2S)-5-[[imino(nitroamino)methyl]amino]-2-[[3-(4-methylphenyl)acryl]amino]-1-oxopentyl]amino]-3-methylbutyl]]
[1]
  IC50: < 10 nM
[2]
  EC50: 2000 to 10000 nM

## COc1ccc(CCCC(=O)N[C@@H](CCCNC(=N)N[N+](=O)[O-])C(=O)N[C@@H](CC(C)C)B(O)O)cc1 [E.2.61, Boronic acid, [(1R)-1-[[(2S)-5-[[imino(nitroamino)methyl]amino]-2-[[4-(4-methoxyphenyl)-butanoyl]amino]-1-oxopentyl]amino]-3-methylbutyl]]
[1]
  IC50: < 10 nM
[2]
  EC50: 2000 to 10000 nM

## CC(C)C[C@H](NC(=O)[C@H](CCCNC(=N)N[N+](=O)[O-])NC(=O)Cc1ccsc1)B(O)O [E.2.62, Boronic acid, [(1R)-1-[[(2S)-5-[[imino(nitroamino)methyl]amino]-2-[(2-thiophen-3-yl-acetyl)amino]-1-oxopentyl]amino]-3-methylbutyl]]
[1]
  IC50: < 10 nM
[2]
  EC50: > 10000 nM

## CC(C)C[C@H](NC(=O)[C@H](CCCNC(=N)N[N+](=O)[O-])NC(=O)CCCC(=O)c1ccsc1)B(O)O [E.2.64, Boronic acid, [(1R)-1-[[(2S)-5-[[imino(nitroamino)methyl]amino]-2-[[5-oxo-5-(thiophen-3-yl)pentanoyl]amino]-1-oxopentyl]amino]-3-methylbutyl]]
[1]
  IC50: < 10 nM
[2]
  EC50: > 10000 nM

## CC(=O)N[C@@H](CCCNC(=N)N[N+](=O)[O-])C(=O)N[C@@H](CC(C)C)B(O)O [E.2.65, Boronic acid, [(1R)-1-[[(2S)-5-[[imino(nitroamino)methyl]amino]-2-[(acetyl)amino]-1-oxopentyl]amino]-3-methylbutyl]]
[1]
  IC50: < 100 nM
[2]
  EC50: > 10000 nM

## CCSCC(=O)N[C@@H](CCCNC(=N)N[N+](=O)[O-])C(=O)N[C@@H](CC(C)C)B(O)O [E.2.66, Boronic acid, [(1R)-1-[[(2S)-5-[[imino(nitroamino)methyl]amino]-2-[(2-ethylsulfanylacetyl)amino]-1-oxopentyl]amino]-3-methylbutyl]]
[1]
  IC50: < 10 nM
[2]
  EC50: > 10000 nM

## CC(C)C[C@H](NC(=O)[C@H](CCCNC(=N)N[N+](=O)[O-])NC(=O)CCCCCCCCCO)B(O)O [E.2.67, Boronic acid, [(1R)-1-[[(2S)-5-[[imino(nitroamino)methyl]amino]-2-[(10-hydroxydecanoyl)amino]-1-oxopentyl]amino]-3-methylbutyl]]
[1]
  IC50: < 10 nM
[2]
  EC50: 2000 to 10000 nM
